Measurements as given in US11160871B2, “SSTR-targeted conjugates and particles and formulations thereof” (TARVEDA THERAPEUTICS, INC., priority 2015, dated 2021).
Several values for one entry are separate records, joined by “and”; a condition that tells them apart may be missing. Equal entries are not always repeated.

What was measured:
[1] = tested on: NCI-H69 tumors; assay: NCI-H69 tumor volume study, 2 doses; type: in vivo, mice
Description: In another study, 10 mice bearing NCI-H69 tumors were given 2 doses of Conjugate 57 at 2 mg/kg each. 9 mice bearing NCI-H69 tumors were given 2 doses of Conjugate 57 at 1.3 mg/kg each. All 10 animals dosed at 2 mg/kg had no detectable tumors at study end. Conjugate 57 More than half (5 out of 9) animals dosed at 1.3 mg/kg had no detectable tumors at study end.

[2] = NCI-H524 small cell lung cancer model, tumor volume and body weight; type: in vivo; conditions: in vivo; read-out: maximum tolerated dose (MTD)
Text: (§1) NCI-H524 over expresses SSTR2. […] There was minimal body weight loss and favorable toxicology.

[3] = tested on: NCI-H524 small cell lung cancer model; assay: as above; type: in vivo
Text: as §1

[4] = Allometric scaling of clearance; parameters: species or system human; conditions: from mouse, rat and dog
[5] = target: CYP1A2 (Homo sapiens, UniProt P05177); assay: CYP inhibition; type: in vitro ADME
Description: (§2) In a further study, the potential for Conjugate 57 to inhibit cytochrome P450 (CYP) was tested across 7 isozymes of CYP enzymes. […] The data also indicate Conjugate 57 presents no risk for causing drug-drug interactions (DDIs) by inhibiting the CYP clearance of other drugs. Lack of DDIs is critical when developing combination therapies.

[6] = target: CYP2B6 (Homo sapiens, UniProt P20813); assay: CYP inhibition; type: in vitro ADME
Description: as §2

[7] = target: CYP2C19 (Homo sapiens, UniProt P33261); assay: CYP inhibition; type: in vitro ADME
Description: as §2

[8] = target: CYP2C8 (Homo sapiens, UniProt P10632); assay: CYP inhibition; type: in vitro ADME
Description: as §2

[9] = target: CYP2C9 (Homo sapiens, UniProt P11712); assay: CYP inhibition; type: in vitro ADME
Description: as §2

[10] = target: CYP2D6 (Homo sapiens, UniProt P10635); assay: CYP inhibition; type: in vitro ADME
Description: as §2

[11] = target: CYP3A4 (Homo sapiens, UniProt P08684); assay: CYP inhibition; type: in vitro ADME
Description: as §2

[12] = Single dose exploratory toxicity study; type: in vivo, SD female rat
Description: Single dose exploratory toxicity studies in SD female rat (dose 0.5 mg/kg to 1.5 mg/kg) for 7-10 days were carried out. Clinical observations, body weight, clinical blood chemistry, histopathology, and complete blood counts were assessed. In the 10-day study, DM1 (0.4 mg/kg) was compared to Conjugate 57 at an equivalent dose of DM1 (1.0 mg/kg of conjugate) and at a 50% higher dose (1.5 mg/kg of conjugate).
Decreased white blood cell (WBC) count is a known dose limiting toxicity of DM1. WBC count was tracked in all groups.
Liver toxicity is also a know dose limiting toxicity of DM1. Alanine transaminase (ALT) and aspartate aminotransferase (AST) are markers of liver toxicity and were measured in all groups.

[13] = tested on: H69 tumors; assay: H69 model tumor growth inhibition; type: in vivo
[14] = tested on: H69 tumor; assay: Histological staining of PH3 and CC3 in periphery, middle and core of H69 tumor; type: in vivo
Text: Histological staining of PH3 and CC3 in periphery, middle and core of H69 tumor after Conjugate 57 treatment was shown in FIG. 22A and FIG. 22B. The periphery sample was taken from roughly the outside ⅓ of the tumor. The core sample was taken from roughly the center ⅓ of the tumor. The middle sample was taken from roughly ⅓ in between these locations. Using a 40× high-powered objective, positively stained cells were counted, one field per animal, 3 animals per treatment group. Each field was roughly 500 μm in size. In general, the PH3 staining was strongest on the periphery and decreased as you moved towards the center of the tumor.

[15] = target: SSTR2 (Homo sapiens, UniProt P30874); assay: Radioligand-receptor binding assay, [125I] labeled somatostatin; parameters: host or cells: CHO-K1
Description: Two conjugates were assessed in an in vitro assay evaluating binding to the somatostatin receptor 2 (SSTR2). A radioligand-receptor binding assay was conducted at Eurofins Panlabs (Taiwan) to determine the affinity of conjugates described herein to the SSTR2. The assay measures binding of radiolabeled ligand, [^125I] labeled somatostatin, to human SSTR2 using membrane preparations from SSTR2 expressing CHO-K1 cells. Membranes were incubated with radiolabeled somatostatin (0.03 nM) in the presence of conjugate/compound starting at a dose of 10 uM using 6× serial dilutions to obtain a 10-pt curve. After a four hour incubation, membranes were filtered and washed 3× and counted to determine the remaining[^125 I] somatostatin bound to the receptor. IC50 values were determined by a non-linear, least squares regression analysis using MathIQ™ (ID Business Solutions Ltd., UK). The Ki values were calculated using the equation of Cheng and Prusoff (Cheng and Prusoff, Biochem. Pharmacol. 22:3099-3108, 1973) using the observed IC50 of the tested conjugate/compound, the concentration of radioligand employed in the assay, and the historical values for the KD of the ligand obtained at Eurofins.

Sequence of SSTR2 (P30874 whole entry): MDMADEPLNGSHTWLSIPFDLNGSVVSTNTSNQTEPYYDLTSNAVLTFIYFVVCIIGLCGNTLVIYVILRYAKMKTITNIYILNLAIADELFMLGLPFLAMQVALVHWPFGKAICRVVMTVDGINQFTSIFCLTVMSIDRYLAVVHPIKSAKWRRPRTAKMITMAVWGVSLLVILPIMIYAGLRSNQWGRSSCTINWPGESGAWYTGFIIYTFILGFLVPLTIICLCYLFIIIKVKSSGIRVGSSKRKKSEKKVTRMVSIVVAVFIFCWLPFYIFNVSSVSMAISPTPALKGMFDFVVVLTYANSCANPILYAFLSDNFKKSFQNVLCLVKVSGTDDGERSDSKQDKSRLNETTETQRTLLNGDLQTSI
Sequence of CYP3A4 (P08684 whole entry): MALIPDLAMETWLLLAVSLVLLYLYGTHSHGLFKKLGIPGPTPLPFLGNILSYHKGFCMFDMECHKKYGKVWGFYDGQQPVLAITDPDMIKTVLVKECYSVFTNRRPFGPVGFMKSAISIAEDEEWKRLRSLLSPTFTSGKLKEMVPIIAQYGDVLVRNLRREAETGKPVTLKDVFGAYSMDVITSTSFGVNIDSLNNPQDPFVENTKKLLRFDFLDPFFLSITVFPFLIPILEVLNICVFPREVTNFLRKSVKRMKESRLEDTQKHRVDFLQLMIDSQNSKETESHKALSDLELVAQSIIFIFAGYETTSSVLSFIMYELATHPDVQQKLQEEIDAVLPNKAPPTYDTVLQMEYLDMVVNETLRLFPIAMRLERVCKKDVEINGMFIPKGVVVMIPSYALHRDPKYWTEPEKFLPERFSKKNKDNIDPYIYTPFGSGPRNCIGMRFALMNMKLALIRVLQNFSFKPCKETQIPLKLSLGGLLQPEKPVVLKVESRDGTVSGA
Sequence of CYP1A2 (P05177 whole entry): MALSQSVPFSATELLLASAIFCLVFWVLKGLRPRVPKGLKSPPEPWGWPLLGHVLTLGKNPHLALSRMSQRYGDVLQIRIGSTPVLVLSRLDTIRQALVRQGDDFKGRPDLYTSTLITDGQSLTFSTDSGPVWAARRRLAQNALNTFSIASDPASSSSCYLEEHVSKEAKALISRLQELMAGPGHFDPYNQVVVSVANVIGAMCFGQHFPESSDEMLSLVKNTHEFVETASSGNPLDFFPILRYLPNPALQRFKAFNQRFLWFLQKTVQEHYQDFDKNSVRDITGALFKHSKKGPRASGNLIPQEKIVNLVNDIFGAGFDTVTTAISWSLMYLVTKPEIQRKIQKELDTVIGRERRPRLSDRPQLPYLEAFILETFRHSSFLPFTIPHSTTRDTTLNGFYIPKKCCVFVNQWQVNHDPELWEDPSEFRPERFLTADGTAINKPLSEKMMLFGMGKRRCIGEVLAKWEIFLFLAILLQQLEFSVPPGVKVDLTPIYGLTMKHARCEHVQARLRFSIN
Sequence of CYP2C8 (P10632 whole entry): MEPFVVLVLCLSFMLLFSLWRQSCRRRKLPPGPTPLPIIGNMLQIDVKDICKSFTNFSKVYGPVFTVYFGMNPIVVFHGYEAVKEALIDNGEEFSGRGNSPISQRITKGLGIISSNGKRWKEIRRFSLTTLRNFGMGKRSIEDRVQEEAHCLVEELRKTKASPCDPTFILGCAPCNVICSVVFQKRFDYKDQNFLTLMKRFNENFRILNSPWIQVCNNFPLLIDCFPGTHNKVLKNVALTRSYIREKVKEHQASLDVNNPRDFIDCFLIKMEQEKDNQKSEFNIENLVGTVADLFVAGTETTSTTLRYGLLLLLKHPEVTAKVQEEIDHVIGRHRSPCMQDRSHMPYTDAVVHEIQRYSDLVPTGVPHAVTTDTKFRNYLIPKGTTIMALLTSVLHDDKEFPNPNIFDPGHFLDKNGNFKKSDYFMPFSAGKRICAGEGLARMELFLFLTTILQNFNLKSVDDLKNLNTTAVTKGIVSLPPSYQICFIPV
Sequence of CYP2C9 (P11712 whole entry): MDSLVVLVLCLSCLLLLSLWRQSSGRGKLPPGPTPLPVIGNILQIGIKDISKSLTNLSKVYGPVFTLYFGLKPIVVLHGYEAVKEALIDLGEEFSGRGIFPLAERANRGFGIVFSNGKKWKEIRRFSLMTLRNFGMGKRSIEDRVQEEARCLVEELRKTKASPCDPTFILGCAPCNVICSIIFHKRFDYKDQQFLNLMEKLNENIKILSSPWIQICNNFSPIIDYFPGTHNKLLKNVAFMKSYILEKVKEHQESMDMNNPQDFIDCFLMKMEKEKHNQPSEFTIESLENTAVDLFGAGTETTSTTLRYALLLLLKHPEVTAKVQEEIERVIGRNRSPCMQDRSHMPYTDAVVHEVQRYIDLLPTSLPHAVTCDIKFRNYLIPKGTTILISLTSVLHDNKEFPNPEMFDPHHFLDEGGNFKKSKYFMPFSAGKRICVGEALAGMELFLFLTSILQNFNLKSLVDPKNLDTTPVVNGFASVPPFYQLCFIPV
Sequence of CYP2D6 (P10635 whole entry): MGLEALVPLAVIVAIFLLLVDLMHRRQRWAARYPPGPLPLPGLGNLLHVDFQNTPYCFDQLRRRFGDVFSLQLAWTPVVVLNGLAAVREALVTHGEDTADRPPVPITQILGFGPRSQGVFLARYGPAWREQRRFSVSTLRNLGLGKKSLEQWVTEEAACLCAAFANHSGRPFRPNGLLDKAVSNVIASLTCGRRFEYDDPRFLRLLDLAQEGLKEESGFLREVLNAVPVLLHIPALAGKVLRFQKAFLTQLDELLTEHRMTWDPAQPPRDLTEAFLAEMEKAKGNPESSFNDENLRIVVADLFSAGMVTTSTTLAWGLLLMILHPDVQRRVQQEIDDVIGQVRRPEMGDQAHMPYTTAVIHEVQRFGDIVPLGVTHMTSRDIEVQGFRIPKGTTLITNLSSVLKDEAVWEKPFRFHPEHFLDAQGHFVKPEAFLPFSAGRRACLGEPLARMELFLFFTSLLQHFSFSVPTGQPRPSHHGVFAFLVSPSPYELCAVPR
Sequence of CYP2B6 (P20813 whole entry): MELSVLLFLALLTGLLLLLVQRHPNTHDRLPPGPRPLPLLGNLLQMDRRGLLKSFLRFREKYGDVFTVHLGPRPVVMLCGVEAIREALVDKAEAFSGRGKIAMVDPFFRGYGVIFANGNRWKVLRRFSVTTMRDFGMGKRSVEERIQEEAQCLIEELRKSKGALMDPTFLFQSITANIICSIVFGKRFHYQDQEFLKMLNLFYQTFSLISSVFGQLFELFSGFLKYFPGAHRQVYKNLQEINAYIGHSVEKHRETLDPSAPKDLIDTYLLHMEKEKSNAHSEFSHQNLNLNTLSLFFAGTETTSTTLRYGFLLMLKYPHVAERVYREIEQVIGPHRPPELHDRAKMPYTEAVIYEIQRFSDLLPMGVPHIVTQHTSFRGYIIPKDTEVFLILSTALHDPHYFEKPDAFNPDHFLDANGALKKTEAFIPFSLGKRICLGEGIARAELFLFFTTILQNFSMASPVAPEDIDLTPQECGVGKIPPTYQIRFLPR
Sequence of CYP2C19 (P33261 whole entry): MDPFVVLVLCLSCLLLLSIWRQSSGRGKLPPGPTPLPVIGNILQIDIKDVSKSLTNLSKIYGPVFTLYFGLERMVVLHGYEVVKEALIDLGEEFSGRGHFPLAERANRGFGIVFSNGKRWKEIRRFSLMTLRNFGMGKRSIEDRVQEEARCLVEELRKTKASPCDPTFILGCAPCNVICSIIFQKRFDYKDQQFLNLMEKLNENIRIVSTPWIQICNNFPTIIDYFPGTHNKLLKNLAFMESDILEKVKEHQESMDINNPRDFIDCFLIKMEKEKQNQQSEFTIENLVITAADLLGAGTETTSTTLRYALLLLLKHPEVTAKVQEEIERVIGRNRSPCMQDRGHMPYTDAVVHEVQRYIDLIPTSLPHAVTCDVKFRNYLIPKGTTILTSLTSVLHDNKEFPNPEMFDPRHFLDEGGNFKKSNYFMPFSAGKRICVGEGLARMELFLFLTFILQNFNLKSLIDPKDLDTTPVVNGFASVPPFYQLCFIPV

COc1cc2cc(c1Cl)N(C)C(=O)C[C@H](OC(=O)[C@H](C)N(C)C(=O)CCSSC[C@H](NC(=O)[C@@H]1CSSC[C@H](NC(=O)[C@H](N)Cc3ccccc3)C(=O)N[C@@H](Cc3ccc(O)cc3)C(=O)N[C@H](Cc3c[nH]c4ccccc34)C(=O)N[C@@H](CCCCN)C(=O)N[C@@H]([C@@H](C)O)C(=O)N1)C(N)=O)[C@]1(C)O[C@H]1[C@H](C)[C@@H]1C[C@@](O)(NC(=O)O1)[C@H](OC)/C=C/C=C(\C)C2 [Conjugate 57]
animals with no detectable tumors at study end ([1]; 2 doses at 1.3 mg/kg each, 9 mice): 5 out of 9
animals with no detectable tumors at study end ([1]; 2 doses at 2 mg/kg each, 10 mice): 10
MTD [2]: 2 mg/kg
tumor response (mean tumor volume) ([3]; 2 mg/kg (MTD) and 1 mg/kg): complete tumor regressions
tolerability (mean body weight change) ([3]; in vivo): well tolerated
clearance in human predicted by allometric scaling [4]: low clearance
IC50 [5]: > 10 µM
IC50 [6]: > 10 µM
IC50 [7]: > 10 µM
IC50 [8]: > 10 µM
IC50 [9]: > 10 µM
IC50 [10]: > 10 µM
IC50 ([11]; CYP3A4 Midazolam): > 10 µM
IC50 ([11]; CYP3A4 Testosterone): > 10 µM
AST and ALT ([12]; 1.0 mg/kg): no effects on AST and ALT
Day 5 weight change (%) ([12]; 1.0 mg/kg): −0.73%
Day 10 weight change (%) ([12]; 1.0 mg/kg): +1.8%
complete blood count (CBC) and WBC count ([12]; 1.0 mg/kg and […]): no significant changes in complete blood count (CBC) and WBC count
tolerability ([12]; 1.0 and […] versus DM1 0.4 mg/kg, 10-day study): significantly improved tolerability versus DM1
TGI % Day 8 ([13]; Conjugate 57 1 mg/kg): 50.1%
TGI % Day 11 ([13]; Conjugate 57 1 mg/kg): 61.4%
TGI % Day 14 ([13]; Conjugate 57 1 mg/kg): 60.4%
TGI % Day 19 ([13]; Conjugate 57 1 mg/kg): 63%
TGI % Day 22 ([13]; Conjugate 57 1 mg/kg): 58.4%
TGI % Day 8 ([13]; Conjugate 57 2 mg/kg): 63.8%
TGI % Day 11 ([13]; Conjugate 57 2 mg/kg): 82.8%
TGI % Day 14 ([13]; Conjugate 57 2 mg/kg): 87.9%
TGI % Day 19 ([13]; Conjugate 57 2 mg/kg): 95.5%
TGI % Day 22 ([13]; Conjugate 57 2 mg/kg): 97.8%
Number of cells with positive CC3 stain, Core ([14]; 24 h): 50.3
Number of cells with positive CC3 stain, Middle ([14]; 24 h): 27.0
Number of cells with positive CC3 stain, Periphery ([14]; 24 h): 9.7
Number of cells with positive PH3 stain, Core ([14]; 24 h): 74.7
Number of cells with positive PH3 stain, Middle ([14]; 24 h): 122.3
Number of cells with positive PH3 stain, Periphery ([14]; 24 h): 158.3
Number of cells with positive CC3 stain, Core ([14]; 72 h): 106.7
Number of cells with positive CC3 stain, Middle ([14]; 72 h): 72.0
Number of cells with positive CC3 stain, Periphery ([14]; 72 h): 41.0
Number of cells with positive PH3 stain, Core ([14]; 72 h): 113.0
Number of cells with positive PH3 stain, Middle ([14]; 72 h): 144.3
Number of cells with positive PH3 stain, Periphery ([14]; 72 h): 215.7
SSTR affinity of Conjugate 57 relative to Conjugate 120 [15]: 100,00 fold
Ki ([15]; Conjugate 57 Ki (nM), SSTR2): 0.018 nM and 0.0177 nM
Ki ([15]; Ki (nm), SSTR affinity, Example 8): 0.017 nM
Ki ([15]; SSTR2 Ki (nM), membranes from SSTR2 expressing CHO-K1 cells): 0.018 nM
